Laboratory results reported in patent publication US20210196598A1, “Specific Co-Aggregation Inhibition by Arginine” (priority 2018, published 2021).

How the values were obtained:
[1] = system: co-aggregates of A. naeslundii (commensal) and P. gingivalis (pathogenic); test: FlowCam coaggregation, commensal:pathogenic pair A. naeslundii and P. gingivalis; type: cell-based, Actinomyces naeslundii and Porphyromonas gingivalis
Protocol: (§1) Coaggregation was studied using FlowCam® technology (Fluid Imaging Technologies, ME, USA). S. gordonii DL1, A. oris MG1, P. gingivalis W83, and F. nucleatum ATCC 25586 were harvested from batch cultures and washed once in coaggregation buffer by centrifuging for 10 mins at 3,000 g. After centrifugation, the pellets were re-suspended in coaggregation buffer and adjusted to an optical density of 1.0 (±0.1) at 600 nm. The cell suspensions were then subject to a 5-fold dilution in coaggregation buffer. Each pair was then loaded onto the FlowCam™ device and allowed to sit for one minute. The pairs were subsequently pumped through the device until they reached the flow cell. Data collection was initiated once the Olympus UPlanFLN 10X/0.30 objective was focused on the flowing particles. The FlowCam™ was run for 45 seconds at a flow rate of 0.3 ml/min and images were acquired at 10 frames per second. Flash duration was set to 8 μSec and the particle sizes were measured using area based diameter (ABD) with a particle filter set to detect between 5 and 10000 μm. The same procedure was tested for each pair while suspended in coaggregation buffer supplemented with various concentrations of arginine or lysine.
(§2) The following three pairs of co-aggregates were co-cultured and treated with either buffer (untreated; control) 86 mM arginine or 100 mM arginine:
2) Commensal oral bacterium A. naeslundii and pathogenic bacterium Porphyromonas gingivalis,
(§3) The reduction in aggregate sizes was greater in each pair of commensal/pathogenic bacteria, i.e. the co-aggregates of A. naeslundii (commensal) and P. gingivalis (pathogenic) and the co-aggregates of S. gordonii (commensal) and F. nucleatum (pathogenic) compared to the commensal/commensal co-aggregates of S. gordonii (commensal) and A. naeslundii (commensal).
(§4) In FIG. 2, the data from the treated co-aggregates was normalized against untreated co-aggregates. FIG. 2 reflects a selective action of arginine against specific co-aggregates. […]

[2] = system: A. oris and F. nucleatum co-aggregate pair; test: Visual Coaggregation Score, A. oris + F. nucleatum; type: cell-based; settings: post-treatment
Protocol: (§5) The following six pairs of co-aggregates were co-cultured and treated with either 86 mM arginine, 400 mM arginine, 86 mM lysine or 400 mM lysine:
5) Commensal oral bacterium A. oris and pathogenic oral bacterium F. nucleatum; and
(§6) Bacterial aggregation was scored visually using a Visual Coaggregation Score (0-4) scoring system.

[3] = system: co-aggregates of S. gordonii (commensal) and F. nucleatum (pathogenic); test: FlowCam coaggregation, commensal:pathogenic pair S. gordonii and F. nucleatum; type: cell-based, Streptococcus gordonii and Fusobacterium nucleatum
Protocol: as §1, §2
3) Commensal oral bacterium S. gordonii and pathogenic bacterium Fusobacterium nucleatum.
as §3, §4

[4] = system: co-aggregates of S. gordonii (commensal) and A. naeslundii (commensal); test: FlowCam coaggregation, commensal:commensal pair S. gordonii and A. naeslundii; type: cell-based, Streptococcus gordonii and Actinomyces naeslundii
Protocol: as §1, §2
1) Commensal oral bacteria Streptococcus gordonii and Actinomyces naeslundii,
as §3, §4

[5] = system: commensal/pathogenic co-aggregate pairs; test: Visual coaggregation scoring, summary in words over the co-aggregate pairs of Table 1; type: cell-based
[6] = system: A. oris and P. gingivalis co-aggregate pair; test: Visual Coaggregation Score, A. oris + P. gingivalis; type: cell-based; settings: post-treatment
Protocol: as §5
6) Commensal oral bacterium A. oris and pathogenic oral bacterium P. gingivalis.
as §6

[7] = system: S. gordonii and A. oris co-aggregate pair; test: Visual Coaggregation Score, S. gordonii + A. oris; type: cell-based; settings: for Visual Coaggregation Score (0-4): post-treatment
Protocol: as §5
1) Commensal oral bacteria S. gordonii and A. oris;
as §6

[8] = system: A. oris and V. atypica co-aggregate pair; test: Visual Coaggregation Score, A. oris + V. atypica; type: cell-based; settings: post-treatment
Protocol: as §5
4) Commensal oral bacterium A. oris and pathogenic oral bacterium V. atypica;
as §6

[9] = system: oral biofilms (plaque); test: Destabilization of oral biofilms (plaque); type: cell-based; settings: biofilms treated with the amino acid
[10] = system: S. gordonii and F. nucleatum co-aggregate pair; test: Visual Coaggregation Score, S. gordonii + F. nucleatum; type: cell-based; settings: post-treatment
Protocol: as §5
3) Commensal oral bacterium S. gordonii and pathogenic oral bacterium F. nucleatum;
as §6

[11] = system: S. gordonii and V. atypica co-aggregate pair; test: Visual Coaggregation Score, S. gordonii + V. atypica; type: cell-based; settings: post-treatment
Protocol: as §5
2) Commensal oral bacterium S. gordonii and pathogenic oral bacterium V. atypica;
as §6

[12] = 86 mM and 100 mM arginine, FIG. 1
[13] = Actinomyces naeslundii, read-out: inhibition of co-aggregation, normalized against untreated co-aggregates
[14] = Streptococcus gordonii, read-out: inhibition of co-aggregation, normalized against untreated co-aggregates

Row | SMILES | Visual Coaggregation Score (0-4) ([2]; 86 mM amino acid) | Visual Coaggregation Score (0-4) ([2]; 400 mM amino acid) | Visual Coaggregation Score (0-4) ([6]; 86 mM amino acid) | Visual Coaggregation Score (0-4) ([6]; 400 mM amino acid) | Visual Coaggregation Score (0-4) ([7]; 86 mM amino acid) | Visual Coaggregation Score (0-4) ([7]; 400 mM amino acid) | Visual Coaggregation Score (0-4) ([8]; 86 mM amino acid) | Visual Coaggregation Score (0-4) ([8]; 400 mM amino acid) | effect on oral biofilms / total biofilm biomass, in words [9] | Visual Coaggregation Score (0-4) ([10]; 86 mM amino acid) | Visual Coaggregation Score (0-4) ([10]; 400 mM amino acid) | Visual Coaggregation Score (0-4) ([11]; 86 mM amino acid) | Visual Coaggregation Score (0-4) ([11]; 400 mM amino acid) | further results
1 | N=C(N)NCCC[C@H](N)C(=O)O [arginine] | 0-1 | 0 | 0-1 | 0 | 4 | 3-4 | 0-1 | 0 | reductions in total biofilm biomass | 0-1 | 0-1 | 2-3 | 2 | bacterial aggregate sizes (area based diameter), in words [1, 12]: dose dependent reduction; inhibition at 86000 µM [1, 13]: 22%; inhibition at 100000 µM [1, 13]: 64%; bacterial aggregate sizes (area based diameter), in words [3, 12]: dose dependent reduction; inhibition at 86000 µM [3, 14]: 25%; inhibition at 100000 µM [3, 14]: 37%; bacterial aggregate sizes (area based diameter), in words [4, 12]: dose dependent reduction; inhibition at 86000 µM [4, 14]: 11%; inhibition at 100000 µM [4, 14]: 14%; inhibition of aggregation, in words ([5]; 86 mM and 100 mM arginine (so in the source), each of the five commensal/pathogenic pairs): selectively inhibited aggregation; inhibitory effect on aggregation, in words ([7]; 86 mM and 100 mM arginine (so in the source), commensal/commensal pair): none to little inhibitory effect
2 | NCCCC[C@H](N)C(=O)O [lysine, reference compound] | 3-4 | 2-3 | 1-2 | 0-1 | 4 | 4 | 3 | 0-1 | No similar disruptive effects | 3-4 | 3 | 4 | 3 | anti-coadhesion functionality, in words ([5]; lysine in any of the corresponding pairs): Little to no anti-coadhesion functionality
